PubChem BioAssay AID248 (DTP/NCI, 2004)
Where “and” joins values, the source holds several entries; their conditions need not be identical. Identical values can stand only once. Inconclusive results and toxic doses are left out. Rule as the data show it: active = T/C of 150% or more; inactive = T/C below 125%.

System: L1210 leukemia ip in BDF1 mice, survival T/C
Assay: NCI In Vivo Anticancer Drug Screen. Data for tumor model L1210 Leukemia (intraperitoneal) in B6D2F1 (BDF1) mice
Conditions: endpoint: mean survival time, higher = longer survival
Method in brief: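 Value reflects the ratio of survival in compound-treated mice to survival in vehicle-treated controls, with both groups carrying the same transplanted tumor.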

[1] = dose: 50.0 mg/kg/injection, schedule: Q01DX001 (ip), vehicle: carboxymethylcellulose (CMC)
[2] = dose: 100.0 mg/kg/injection, schedule: Q01DX001 (ip), vehicle: carboxymethylcellulose (CMC)
[3] = dose: 200.0 mg/kg/injection, schedule: Q01DX001 (ip), vehicle: carboxymethylcellulose (CMC)
[4] = dose: 400.0 mg/kg/injection, schedule: Q01DX001 (ip), vehicle: carboxymethylcellulose (CMC)
[5] = dose: 100.0 mg/kg/injection, schedule: Q01DX009 (ip), vehicle: saline with Tween-80
[6] = dose: 200.0 mg/kg/injection, schedule: Q01DX009 (ip), vehicle: saline with Tween-80
[7] = dose: 100.0 mg/kg/injection, schedule: Q04DX002 (ip), vehicle: saline with Tween-80
[8] = dose: 200.0 mg/kg/injection, schedule: Q04DX002 (ip), vehicle: saline with Tween-80
[9] = dose: 400.0 mg/kg/injection, schedule: Q04DX002 (ip), vehicle: saline with Tween-80
[10] = dose: 100.0 mg/kg/injection, schedule: Q04DX003 (ip), vehicle: Klucel (hydroxypropylcellulose) (HPC)
[11] = dose: 200.0 mg/kg/injection, schedule: Q04DX003 (ip), vehicle: Klucel (hydroxypropylcellulose) (HPC)
[12] = dose: 400.0 mg/kg/injection, schedule: Q04DX003 (ip), vehicle: Klucel (hydroxypropylcellulose) (HPC)
[13] = dose: 50.0 mg/kg/injection, schedule: Q01DX009 (ip), vehicle: Klucel (hydroxypropylcellulose) (HPC)
[14] = dose: 100.0 mg/kg/injection, schedule: Q01DX009 (ip), vehicle: Klucel (hydroxypropylcellulose) (HPC)
[15] = dose: 200.0 mg/kg/injection, schedule: Q01DX009 (ip), vehicle: Klucel (hydroxypropylcellulose) (HPC)
[16] = dose: 50.0 mg/kg/injection, schedule: Q01DX009 (ip), vehicle: saline with Tween-80
[17] = dose: 100.0 mg/kg/injection, schedule: Q04DX002 (ip), vehicle: Klucel (hydroxypropylcellulose) (HPC)
[18] = dose: 200.0 mg/kg/injection, schedule: Q04DX002 (ip), vehicle: Klucel (hydroxypropylcellulose) (HPC)
[19] = dose: 400.0 mg/kg/injection, schedule: Q04DX002 (ip), vehicle: Klucel (hydroxypropylcellulose) (HPC)
[20] = dose: 400.0 mg/kg/injection, schedule: Q01DX009 (ip), vehicle: Klucel (hydroxypropylcellulose) (HPC)

Measured: T/C

CC(=O)OC1=C(CC(C)(C)C)C(=O)c2ccccc2C1=O
inactive: [1] 103 % of control | [2] 103 % of control | [3] 100 % of control | [4] 105 % of control

COCCNC(=O)Nc1cccc2c1CCCC2
inactive: [5] 97 % of control | [6] 99 % of control | dose: 400.0 mg/kg/injection, schedule: Q01DX009 (ip), vehicle: saline with Tween-80 103 % of control

CCOC(=O)C(=O)C(=O)OCC
inactive: [7] 101 % of control | [8] 107 % of control | [9] 88 % of control

CC12OC1C(=O)c1ccccc1C2=O (centres undefined)
inactive: dose: 5.0 mg/kg/injection, schedule: Q04DX003 (ip), vehicle: Klucel (hydroxypropylcellulose) (HPC) 103 % of control | dose: 10.0 mg/kg/injection, schedule: Q04DX003 (ip), vehicle: Klucel (hydroxypropylcellulose) (HPC) 97 % of control

CCCCC(C#N)C(=O)OCC (centres undefined)
inactive: [10] 97 % of control | [11] 94 % of control | [12] 87 % of control

N#C/C(=C\c1cc(Cl)ccc1O)C1CCC([N+](=O)[O-])CC1 (centres undefined)
inactive: [7] 98 % of control | [8] 113 % of control | [9] 106 % of control

O=C(Nc1ccc([N+](=O)[O-])cc1Cl)Oc1ccc(Cl)cc1Cl
inactive: [2] 97 % of control | dose: 100.0 mg/kg/injection, schedule: Q01DX009 (ip), vehicle: carboxymethylcellulose (CMC) 109 % of control and 91 % of control | dose: 100.0 mg/kg/injection, schedule: Q04DX002 (ip), vehicle: carboxymethylcellulose (CMC) 94 % of control and 90 % of control | dose: 100.0 mg/kg/injection, schedule: Q04DX003 (ip), vehicle: carboxymethylcellulose (CMC) 102 % of control | [3] 97 % of control | dose: 200.0 mg/kg/injection, schedule: Q01DX009 (ip), vehicle: carboxymethylcellulose (CMC) 102 % of control and 91 % of control | dose: 200.0 mg/kg/injection, schedule: Q04DX002 (ip), vehicle: carboxymethylcellulose (CMC) 93 % of control and 110 % of control | dose: 200.0 mg/kg/injection, schedule: Q04DX003 (ip), vehicle: carboxymethylcellulose (CMC) 94 % of control | [4] 98 % of control | dose: 400.0 mg/kg/injection, schedule: Q01DX009 (ip), vehicle: carboxymethylcellulose (CMC) 98 % of control | dose: 400.0 mg/kg/injection, schedule: Q04DX002 (ip), vehicle: carboxymethylcellulose (CMC) 93 % of control and 105 % of control | dose: 400.0 mg/kg/injection, schedule: Q04DX003 (ip), vehicle: carboxymethylcellulose (CMC) 98 % of control

O=c1nc2n(O)cccc-2c(=O)[nH]1
inactive: [13] 96 % of control | [14] 100 % of control | [10] 96 % of control | [15] 101 % of control | [11] 102 % of control

CCC(O)(/C(=N/Nc1ccc([N+](=O)[O-])cc1[N+](=O)[O-])c1ccccc1)c1ccccc1 (centres undefined)
inactive: dose: 100.0 mg/kg/injection, schedule: Q01DX001 (ip), vehicle: saline with Tween-80 94 % of control | dose: 200.0 mg/kg/injection, schedule: Q01DX001 (ip), vehicle: saline with Tween-80 89 % of control | dose: 400.0 mg/kg/injection, schedule: Q01DX001 (ip), vehicle: saline with Tween-80 89 % of control

CC(C(Nc1ccc(C(=O)O)cc1)C(F)(F)C(F)(F)C(F)(F)F)[N+](=O)[O-] (centres undefined)
inactive: [10] 88 % of control | [11] 89 % of control | [12] 98 % of control

O=C(N/N=C/c1ccccn1)c1ccc(Cl)cc1
inactive: [16] 104 % of control | [5] 86 % of control | [6] 107 % of control

Cc1ccc(-n2ccnc2C)c(N=Cc2ccc(N(CCCl)CCCl)cc2C)c1
inactive: [17] 98 % of control | [18] 102 % of control | [19] 106 % of control

O=C(/C=C/c1ccc(Cl)cc1)NCC(O)CO (centres undefined)
inactive: dose: 150.0 mg/kg/injection, schedule: Q04DX003 (ip), vehicle: water 100 % of control | dose: 300.0 mg/kg/injection, schedule: Q04DX003 (ip), vehicle: water 105 % of control | dose: 600.0 mg/kg/injection, schedule: Q04DX003 (ip), vehicle: water 102 % of control

N#Cc1oc2ccccc2c1O
inactive: dose: 25.0 mg/kg/injection, schedule: Q01DX009 (ip), vehicle: saline with Tween-80 92 % of control | [16] 96 % of control | [5] 92 % of control | dose: 100.0 mg/kg/injection, schedule: Q04DX003 (ip), vehicle: saline with Tween-80 103 % of control

O=C(COc1cc(Cl)c(Cl)cc1Cl)OC(=O)COc1cc(Cl)c(Cl)cc1Cl
inactive: [17] 107 % of control | [18] 96 % of control

COc1cc(C(=Nc2ccccc2)C(=Nc2ccccc2)c2cc(OC)c(OC)c(OC)c2)cc(OC)c1OC
inactive: dose: 25.0 mg/kg/injection, schedule: Q01DX009 (ip), vehicle: Klucel (hydroxypropylcellulose) (HPC) 98 % of control | [13] 91 % of control | [14] 90 % of control | [10] 100 % of control | [15] 95 % of control and 116 % of control | [11] 97 % of control | [20] 120 % of control | [12] 96 % of control

CC(=O)NNc1ccnc(SCc2ccccc2)n1
inactive: dose: 100.0 mg/kg/injection, schedule: Q04DX003 (ip), vehicle: gum acacia 94 % of control | dose: 200.0 mg/kg/injection, schedule: Q04DX003 (ip), vehicle: gum acacia 87 % of control | dose: 400.0 mg/kg/injection, schedule: Q04DX003 (ip), vehicle: gum acacia 94 % of control

C[N+](C)(CC(=O)Nc1ccc(Cl)cc1)Cc1ccc2c(c1)CCCC2
inactive: dose: 6.25 mg/kg/injection, schedule: Q04DX002 (ip), vehicle: saline with Tween-80 90 % of control | dose: 12.5 mg/kg/injection, schedule: Q04DX002 (ip), vehicle: saline with Tween-80 90 % of control | dose: 25.0 mg/kg/injection, schedule: Q04DX002 (ip), vehicle: saline with Tween-80 90 % of control and 91 % of control

NS(=O)(=O)c1ccc(NC(=O)Nc2cccc(C(F)(F)F)c2)cc1
inactive: [14] 97 % of control | [17] 94 % of control | [15] 91 % of control | [18] 91 % of control | [20] 94 % of control | [19] 97 % of control

O=c1c(N(CCO)CCO)cn(C(c2ccccc2)(c2ccccc2)c2ccccc2)c(=O)n1C(c1ccccc1)(c1ccccc1)c1ccccc1
inactive: [1] 104 % of control | [2] 96 % of control | [3] 100 % of control | [4] 96 % of control

NC(=O)C(=O)NCCCN1CC1
inactive: dose: 12.5 mg/kg/injection, schedule: Q04DX003 (ip), vehicle: Klucel (hydroxypropylcellulose) (HPC) 102 % of control | dose: 25.0 mg/kg/injection, schedule: Q04DX003 (ip), vehicle: Klucel (hydroxypropylcellulose) (HPC) 98 % of control | dose: 50.0 mg/kg/injection, schedule: Q04DX003 (ip), vehicle: Klucel (hydroxypropylcellulose) (HPC) 106 % of control | [10] 118 % of control
